Results from EP0194548A2, “Sulfonylaminoethyl compounds, medicines containing these compounds and process for their preparation” (Dr. Karl Thomae GmbH, priority 1985, dated 1986).

Key:
[1] = system: Mäusen; test: Orientating acute toxicity after a single oral dose; type: in vivo; conditions: mice, groups of 10, observation time 14 days
From the text: Die akute Toxizität der zu untersuchenden Substanzen wurde orientierend an Gruppen von je 10 Mäusen nach oraler Gabe einer Einzeldosis bestimmt (Beobachtungszeit 14 Tage): […]

[2] = system: Mäusen; test: Prolongation of bleeding time (tail tip cut) after oral dosing; type: in vivo; conditions: conscious mice, 10 mg/kg p.o., 1 hour after dosing, 5 animals per test, versus controls without substance
Description: Da im Falle einer Verletzung die erste rasche Blutstillung durch Thrombozyten geschieht, läßt sich beim Setzen einer standardisierten Verletzung die Funktion der Thrombozylen mit Hilfe der Messung der Blutungszeit gut bestimmen. Die normale Blutungszeit beträgt beim Menschen etwa 1 bis 3 min., setzt aber leistungsfähige und in genügender Zahl vorhandene Thrombozyten voraus. Bei einer normalen Thrombozytenzahl weist also eine verlängerte Blutungszeit auf eine gestörte Funktion der Thrombozyten hin. Wir finden dies z.B. bei einigen angeborenen Thrombozytenfunktionsstörungen. Will man auf der anderen Seite die Neigung zu spontanem Zusammenballen der Thrombozyten mit der Folge von Gefäßverschlüssen im arteriellen System durch Medikamente verhindern, so muß folglich bei einer erfolgreichen thrombozytenwirksamen Therapie die Blutungszeit unter Substanzeinfluß verlängert werden. Bei einer thrombozytenwirksamen Substanz ist also eine Verlängerung der Blutungszeit und - da das plasmatische Gerinnungssystem ja nicht berührt wird -eine normale Blutgerinnungszeit zu erwarten.
Zur Bestimmung der Blutungszeit wurden die zu untersuchenden Substanzen wachen Mäusen in einer Dosis von 10 mg/kg p.o. appliziert. Nach einer Stunde wurde von der Schwanzspitze jedes Tieres ca. 0,5 mm abgeschnitten und das austretende Blut in Abständen von 30 Sekunden bis zum Sistieren der Blutung vorsichtig mit einem Filterpapier abgetupft. Die Zahl der so erhaltenen Bluttropfen ergibt ein Maß für die Blutungszeit (5 Tiere pro Versuch). Die folgenden Zahlenangaben bedeuten Prozent-Verlängerung gegenüber Kontrollen ohne Substanzgabe: […]

[3] = system: Thrombozytenaggregation in plättchenreichem Plasma; test: Collagen-induced platelet aggregation (method of BORN and GROSS) in platelet-rich plasma; type: cell-based, Versuchspersonen; conditions: 10 min, plasma incubated 10 min with substance at 37°C, 50% change of optical density
From the text: Die Thrombozytenaggregation wird nach der Methode von BORN und GROSS (J. Physiol. 170, 397 (1964)) in plättchenreichem Plasma gesunder Versuchspersonen gemessen. Zur Gerinnungshemmung wird das Blut mit […] 3,14 % im Volumenverhältnis 1:10 versetzt
Collagen-induzierte Aggregation
Der Verlauf der Abnahme der optischen Dichte der Plättchensuspension wird nach Zugabe der aggregationsauslösenden Substanz photometrisch gemessen und registriert. Aus dem Neigungswinkel der Dichtekurve wird auf die Aggregationsgeschwindigkeit geschlossen. Der Punkt der Kurve, bei dem die größte Lichtdurchlässigkeit vorliegt, dient zur Berechnung der "optical dens^ity".
Die Collagen-Menge wird möglichst gering gewählt, aber doch so, daß sich eine irreversibel verlaufende Reaktionskurve ergibt. Verwendet wird das handelsübliche Collagen der Firma Hormonchemie, München.
Vor der Collagen-Zugabe wird das Plasma jeweils 10 Minuten mit der Substanz bei 37°C inkubiert.
Aus den erhaltenen Meßzahlen wird graphisch eine EC50 berechnet, die sich auf eine 50%ige Änderung der "optical density" im Sinne einer Aggregationshemmung bezieht.

Compound | Orientierende akute Toxizität ([1]; single oral dose 250 mg) | Verlängerung der Blutungszeit in % nach 1 Stunde [2] [%] | EC50 [3] [nM] | Orientierende akute Toxizität ([1]; single oral dose 1.000 mg)
O=C(O)CCC(=O)c1ccc(CCNS(=O)(=O)c2ccccc2)cc1 [Substanz F, 3-[4-(2-Benzolsulfonylamino-äthyl)-benzoyl]-propionsäure] | 250 mg (0 von 10 Tieren gestorben) | >266 | 3000 | 
COCCOC(=O)CCC(=O)c1ccc(CCNS(=O)(=O)c2ccccc2)cc1 [Substanz B, 3-[4-(2-Benzolsulfonylaminoäthyl)-benzoyl]-propionsäure-ß-methoxyäthylester] |  | 110 | > 10000 | 1.000 mg (0 von 10 Tieren gestorben)
O=C(O)CCC(=O)c1ccc(CCNS(=O)(=O)c2ccc(Cl)cc2)cc1 [Substanz A, 3-[4-(2-(4-Chlorbenzolsulfonyl)-aminoäthyl)-benzoyl]-propionsäure] |  | 108 | 4000 | 1.000 mg (0 von 10 Tieren gestorben)
O=C1CCC(c2ccc(CCNS(=O)(=O)c3ccccc3)cc2)=NN1 [Substanz C, 6-[4-(2-Benzoylsulfonylaminoäthyl)-phenyl]-4,5-dihydro-pyridazin-(2H)-3-on] |  | 145 | 3300 | 1.000 mg (0 von 10 Tieren gestorben)
O=C1CCC(c2ccc(OCCNS(=O)(=O)c3ccccc3)cc2)=NN1 [Substanz E, 6-[4-(2-Benzolsulfonylaminoäthoxy)-phenyl]-4,5-dihydro-pyridazin-(2H)-3-on] |  | 233 | 3000 | 1.000 mg (0 von 10 Tieren gestorben)
Cc1ccc(S(=O)(=O)NCCc2ccc(C3=NNC(=O)CC3C)cc2)cc1 (stereo not drawn) [Substanz D, 6-[4-(2-(p-Toluolsulfonyl)-aminoäthyl)-phenyl]-5-methyl-4,5-dihydro-pyridazin-(2H)-3-on] |  | 187 | 2400 | 1.000 mg (0 von 10 Tieren gestorben)
